Test results published in US9493507B2, “Glutathione-elevating compositions and uses thereof” (Oneday— Biotech And Pharma Ltd., priority 2012, dated 2016).
Entries after “also recorded” stand apart in the source; their conditions may differ.

Test system: murine erythrocytes
Assay: Effect of DY-65 on GSH, GSSG and GSH:GSSG ratio in murine erythrocytes exposed to hydrogen peroxide
Format: cell-based, mice
Settings: DY-65 5 μM
Protocol: The in vitro efficacy of peptide DY-65 in suppressing the decrease in the ratio of GSH to GSSG in murine erythrocytes exposed to hydrogen peroxide was tested.
Murine erythrocytes (“Cells”) were prepared by washing freshly harvested whole blood from mice three times in PBS. Cells were resuspended in DMEM at a concentration of 10^6 per mL. All study conditions were evaluated in triplicate.
Hydrogen peroxide (200 μM) was utilized to induce redox stress in murine erythrocytes (“Cells”). Prior to exposure to hydrogen peroxide, cells were randomly allocated to the following experimental groups:
1. Sham (no exposure to hydrogen peroxide; no drug) • a. 2.5 h final incubation
2. Vehicle control (hydrogen peroxide; no drug) • a. 1.0 h final incubation • b. 1.5 h final incubation • c. 2.0 h final incubation • d. 2.5 h final incubation
3. DY-65 (5 μM)+hydrogen peroxide • a. 1.0 h final incubation • b. 1.5 h final incubation • c. 2.0 h final incubation • d. 2.5 h final incubation
Cells at a concentration of 10^6 per mL were incubated with vehicle DMEM (Groups 1 or 2) or peptide DY-65 (Group 3) for 3 hours at 37° C. Thereafter, cells were washed three times with DMEM and resuspended in vehicle DMEM (Group 1) or hydrogen peroxide in DMEM (Groups 2-3) for 1 hour at 37° C.
Thereafter, cells were washed three times with DMEM and resuspended in DMEM at 37° C., 10^6 per mL, with peptide DY-65 (Group 3) or without peptide DY-65 (Groups 1-2). The duration of final incubation was 1.0, 1.5, 2.0, or 2.5 h. Cells were then pelleted, lysed, and processed for measurement of GSH and GSSG using a Glutathione Assay kit sold by Cayman (Chemical Item Number 703002). Data were expressed as micromoles of GSH or GSSG per 1 million erythrocytes.
Given 9 conditions, 3 replicates per condition, and 2 endpoints (GSH and GSSG), a total of 54 wells were incubated.
Data analysis. All values in the figure and text below were expressed as mean±standard deviation (SD) and standard error (SE) of n observations. The results were analyzed by one-way ANOVA followed by Tukey's post-hoc test for multiple comparisons. […]

N-acetyl-Cys-Lys-Met-Cys-NH2 (Ac-CKMC-NH2; cysteine pairing not given here) [DY-65]
effect on GSH concentration after hydrogen peroxide (hydrogen peroxide 200 μM 1 h, 1 h final incubation, FIG. 2C): completely protective; also recorded: increase GSH | effect on GSSG elevation in response to hydrogen peroxide (hydrogen peroxide 200 μM 1 h, final incubation 1.0-2.5 h, FIG. 2D): uniformly effective in suppressing the elevation of GSSG; also recorded: decrease GSSG | ratio of GSH to GSSG (hydrogen peroxide 200 μM, earliest time point, 1 h post exposure, FIG. 2E): clear benefit
